Source: patent US20230372433A1, “NANOPARTICLE FOR ANTI-CANCER PEPTIDES AND USES THEREOF” (KING'S COLLEGE LONDON, priority 2020, published 2023)

How the values were obtained:
[1] = ANTS/DPX liposome leakage assay, 3POPC/1POPG vesicles; type: biochemical; conditions: 0.5 mM vesicles
Protocol: (§1) In brief, 0.5 mM POPC vesicles (grey) or POPC:POPG vesicles (ratio 3:1, black) were incubated with peptide concentrations of 0, 0.02, 0.04, 0.08, 0.16, 0.32, 0.64, 1.25, 2.5, 5, 10, and 20 μM in each A) hydrochloric acid-adjusted phosphate buffered saline (1X, pH 4.8) and B) phosphate buffered saline (1X, pH 7.4).
(§2) The lipids 1-palmitoyl-2-oleoyl-sn-glycero-3-phosphocholine (POPC), 1-palmitoyl-2-oleoyl-snglycero-3-phospho-(1′-rac-glycerol) (POPG) were purchased from Avanti Polar Lipids and dissolved in chloroform. Large unilamellar vesicles (LUVs) were produced by extrusion through 100 nm pore filter using an extruder and filters purchased from Avanti Polar Lipids.
(§3) 5 mM ANTS (8-aminonaphthalene-1,3,6-trisulfonic acid, disodium salt) and 12.5 mM DPX (p-xylene-bis-pyridinium bromide) were entrapped in 0.1 μm diameter extruded vesicles with lipids. Gel filtration chromatography using a Sephadex G-100 (GE Healthcare Life Sciences Inc) was used to remove external free ANTS/DPX from LUVs with entrapped contents. LUVs were diluted to 0.5 mM and used to measure the leakage activity by addition of aliquots of peptides. Leakage was measured after 3 h incubation. 10% Triton was used as the positive control to measure the maximum leakage of the vesicle. Fluorescence emission spectra were recorded using excitation and emission wavelength of 350 nm and 510 nm for ANTS/DPX using a BioTek Synergy H1 Hybrid Multi-Mode Reader.
(§4) Table 4 illustrates peptide concentration-induced 50 ANTS/DPX liposome leakage. 0.5 mM POPC and 3POPC/1POPG vesicles were fixed and incubated with titrated peptide concentration (0, 0.02, 0.04, 0.08, 0.16, 0.32, 0.64, 1.25, 2.5, 5, 10, and 20 μM) each in phosphate buffered saline (1X, pH 7.4) and hydrochloric acid-adjusted phosphate buffered saline (1X, pH 4.8). The values are shown as lipid per peptide. IN-terminus is free, C-terminus: —W—NH2.

[2] = tested on: HMLER (human breast cancer bulk cell); test: MTT cytotoxicity assay, HMLER; type: cell-based; conditions: 72 hr, MTT; read-out: IC50 HMLER
[3] = Tryptophan fluorescent binding assay, POPC vesicles; conditions: 50 μM peptide, PBS pH 7.4
Protocol: (§5) In brief, 50 μM peptides were fixed and incubated with titrated POPC vesicles (black) or 3POPC/1POPG vesicles (grey) at concentrations of 0, 12.5, 25, 50, 100, 250, 500, 1000, 2500, and 5000 μM in phosphate buffered saline (1X, pH 7.4). The lipid concentration that causes 50% peptide binding was determined using a tryptophan fluorescent binding assay and the values are shown as lipid per peptide.
as §2
(§6) Peptides (50 μM) and POPC/POPG LUVs (600 μM) were prepared in 10 mM phosphate buffer (pH 7.0). The solutions were incubated and measured after 60 minutes. Excitation was fixed at 280 nm (slit 9 nm) and emission was collected from 300 to 450 nm (slit 9 nm). The spectra were recorded using a Synergy H1 Hybrid Multi-Mode Reader (FIG. 3A) and Cytation™ 5 Cell Imaging Multi-Mode Reader (FIG. 2) from BioTek and were averaged over 3 scans.
(§7) Table 3 illustrates the lipid concentration-induced 50% peptide binding onto a liposome. 50 μM peptide was fixed and incubated with titrated lipid (POPC vesicles or 3POPC/1POPG vesicles) at concentrations of 0, 12.5, 25, 50, 100, 250, 500, 1000, 2500, and 5000 μM in phosphate buffered saline (1X, pH 7.4). The lipid concentration that causes 50% peptide binding was determined using tryptophan fluorescent binding assay and the values are shown as lipid per peptide. IN-terminus is free, C-terminus: —W—NH2.

[4] = tested on: HEK293T (human embryonic kidney cell); test: MTT cytotoxicity assay, HEK293T; type: cell-based; conditions: 72 hr, MTT; read-out: IC50 HEK293T
[5] = tested on: MCF-10A (human breast epithelial cell); test: cells; conditions: read-out: IC50 MCF-10A; 72 hr, MTT
Description: HMLER (human mammary endothelial cancer cells), HMLER-shEcad (human mammary endothelial cancer stem cells), and MCF-10A (healthy human mammary endothelial) cells were maintained in Mammary Epithelial Cell Growth Medium (MEGM) with supplements and growth factors: bovine pituitary extract (BPE), hydrocortisone, human epidermal growth factor (hEGF), insulin, and gentamicin/amphotericin-B. HEK293T (human embryonic kidney cell), and U2OS (homo sapiens bone osteosarcoma) cells were maintained in Dulbecco's Modified Eagle's Medium (DMEM) with a final concentration of 10% fetal bovine serum. The cells were grown in T75 flask at 310 K in a humidified atmosphere containing 5% CO2.
The colourimetric MTT (3-(4,5-dimethylthiazol-2-yl)-2,5-diphenyltetrazolium bromide) assay was used to determine the toxicity of the anti-cancer peptides and conventional anti-cancer drugs. 5×10^3 cells were seeded in each well of a 96-well microplate. The cells were incubated overnight. Elevated concentrations of the compounds (0, 0.1, 0.2, 0.4, 0.8, 1.6, 3.1, 6.3, 12.5, 25, 50 and 100 μM) were added and incubated for 72 hr with a total volume 200 μL. The stock solutions of the compounds were prepared as 5 mM solutions in DMSO and diluted using media or in pure water. The final concentration of DMSO in each well was either 0.5% or 0% and this amount was present in the untreated control. After 72 hr, 20 μL of a 4 mg/mL solution of MTT in PBS was added to each well, and the plate was incubated for an additional 4 hr. The MEGM/MTT mixture was aspirated and 100 μL of DMSO was added to dissolve the resulting purple formazan crystals. The absorbance of the solutions in each well was read at 550 nm wavelength. Absorbance values were normalized to either DMSO-containing or non DMSO-containing control wells and plotted as concentration of test compound versus % cell viability. ICso values were interpolated from the resulting dose dependent curves.
The peptides were screened against several different human cell lines and their cytotoxicity were determined. Cell lines utilised include MCF-10A (human breast epithelial cell), HMLER (human breast cancer bulk cell), HMLER-shEcad (human breast cancer stem cell), HEK293T (human embryonic kidney cell), and U2OS (human bone osteosarcoma).

[6] = tested on: HMLER-shEcad (human breast cancer stem cell); test: MTT cytotoxicity assay, HMLER-shEcad; type: cell-based; conditions: 72 hr, MTT; read-out: IC50 HMLER-shEcad
[7] = tested on: U2OS (human bone osteosarcoma); test: MTT cytotoxicity assay, U2OS; type: cell-based; conditions: 72 hr
[8] = Tryptophan fluorescent binding assay, 3POPC/1POPG vesicles; conditions: 50 μM peptide, PBS pH 7.4
Protocol: as §5, §2, §6, §7

[9] = ANTS/DPX liposome leakage assay, POPC vesicles; type: biochemical; conditions: 0.5 mM vesicles
Protocol: as §1, §2, §3, §4

Sequence	Peptide Concentration-induced 50% ANTS/DPX leakage at pH 4.8 (L/P) 3POPC/1POPG Vesicle [1]	Peptide Concentration-induced 50% ANTS/DPX leakage at pH 7.4 (L/P) 3POPC/1POPG Vesicle [1]	IC50 [2]	Lipid Concentration-induced 50% Peptide Binding (L/P) POPC Vesicle [3]	IC50 [4]	IC50 [5]	IC50 [6]	IC50 [7]	Lipid Concentration-induced 50% Peptide Binding (L/P) 3POPC/1POPG Vesicle [8]	Peptide Concentration-induced 50% ANTS/DPX leakage at pH 4.8 (L/P) POPC Vesicle [9]	Peptide Concentration-induced 50% ANTS/DPX leakage at pH 7.4 (L/P) POPC Vesicle [9]
GLLDLLELLLHAAG [DEH]	193 L/P	548 L/P	5.35 ± 1.91 µM	0.75 L/P	10.5 ± 4.67 µM	20.2 ± 6.72 µM	3.6 ± 0.42 µM	36.5 ± 3.92 µM	1.50 L/P	63 L/P	620 L/P
GLLDLLHLLLEAAG [DHE]	469 L/P	581 L/P	3.75 ± 0.92 µM	1.00 L/P	11.1 ± 1.91 µM	22.7 ± 4.31 µM	2.8 ± 0.14 µM	17.2 ± 1.06 µM	0.72 L/P	58 L/P	566 L/P
GLLDLLHLLLKAAG [DHK]	183 L/P	469 L/P	1.75 ± 0.49 µM	0.20 L/P	7.3 ± 0.42 µM	5.05 ± 1.34 µM	1.02 ± 0.12 µM	20.4 ± 2.05 µM	0.38 L/P	47 L/P	747 L/P
GLLDLLKLLLEAAG [DKE]	469 L/P	411 L/P	2.1 µM	0.56 L/P	7.8 ± 1.41 µM	4.75 ± 0.49 µM	1.57 ± 0.33 µM	9.93 ± 0.25 µM	0.46 L/P	21 L/P	747 L/P
